Assay [1] deals with muscarinic cholinergic receptors. As to the kind of experiment: 3H-oxotremorine-M binding study. Conditions: inhibition of binding of 3H-oxotremorine-M; read-out: inhibition costant (Ki).
The next assay concerns the target m4 receptors (Homo sapiens, UniProt P08173). It counts as cell-based. Conditions: CHO m4 cells treated with pertussis toxin.
In a further assay the target is T1, 5HT2C (Homo sapiens, UniProt P28335).
T1 sequence (P28335 33-458): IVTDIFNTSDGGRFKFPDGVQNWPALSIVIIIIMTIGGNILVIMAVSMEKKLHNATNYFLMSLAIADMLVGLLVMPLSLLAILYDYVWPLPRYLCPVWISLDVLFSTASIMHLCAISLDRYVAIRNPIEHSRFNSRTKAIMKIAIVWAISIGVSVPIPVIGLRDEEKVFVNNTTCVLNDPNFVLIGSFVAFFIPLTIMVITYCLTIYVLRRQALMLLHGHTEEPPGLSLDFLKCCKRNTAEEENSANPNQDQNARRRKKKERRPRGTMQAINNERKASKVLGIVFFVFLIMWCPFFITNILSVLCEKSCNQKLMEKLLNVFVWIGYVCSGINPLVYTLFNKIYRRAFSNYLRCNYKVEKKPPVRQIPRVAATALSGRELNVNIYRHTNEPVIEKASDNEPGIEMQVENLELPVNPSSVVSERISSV
The experiment in a line: 5HT2C receptor affinity. It counts as binding. The settings on record: 5HT2C receptor subtype.

Chain of m4 receptors (P08173 whole entry): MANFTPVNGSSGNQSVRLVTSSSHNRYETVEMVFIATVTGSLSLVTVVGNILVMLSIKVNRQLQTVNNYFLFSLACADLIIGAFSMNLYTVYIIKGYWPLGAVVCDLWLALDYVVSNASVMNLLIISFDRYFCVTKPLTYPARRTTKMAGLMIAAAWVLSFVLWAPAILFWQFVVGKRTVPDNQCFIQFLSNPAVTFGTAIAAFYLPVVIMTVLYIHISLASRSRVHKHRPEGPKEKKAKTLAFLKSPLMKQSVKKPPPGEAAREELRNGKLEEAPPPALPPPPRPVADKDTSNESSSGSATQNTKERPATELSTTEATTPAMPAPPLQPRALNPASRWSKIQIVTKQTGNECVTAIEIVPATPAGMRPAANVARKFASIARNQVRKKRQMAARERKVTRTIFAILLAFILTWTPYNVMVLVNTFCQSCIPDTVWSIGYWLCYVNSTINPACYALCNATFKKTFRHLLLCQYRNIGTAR

As for `CCCCCCOc1nsnc1C1=CCCN(C)C1` [Xanomeline, 3-(4-hexyloxy-1,2,5-thiadiazol-3-yl)-1,2,5,6-tetrahydro-1-methylpyridine], the Ki (in general, the equilibrium dissociation constant of an inhibitor or competing ligand from its target) in assay [1] stood at 2 nM; at 5HT2C, 120 nM. For the same molecule, at m4 receptors, the “formation of cAMP” value was “efficaciously and potently stimulated the formation of cAMP”.

The record behind these values is EP0821954A1, “Method for treating mental retardation” (ELI LILLY AND COMPANY, priority 1996, dated 1998).
